The target of one test is JH2 domain of human Tyk2 (Homo sapiens (Human), UniProt P29597). Nature of the test: JH2 Biochemical Assay (TR-FRET probe displacement). Type of test: binding. (In general: Time-resolved FRET reads energy transfer from a long-lived donor to a nearby acceptor.)
The target of another test is Tyk2 (Homo sapiens (Human), UniProt P29597). Kind of test: pSTAT4 Cell Assay (MSD, NK92 cells). It counts as cell-based.
The mark [1] stands for this setting: JH2 domain of human Tyk2, TR-FRET probe displacement.
The mark [2] stands for this setting: TR-FRET probe displacement, JH2 domain of human Tyk2.
The mark [3] stands for this setting: TR-FRET probe displacement, JH2 domain.

Broadly, the IC50 is the concentration needed to halve the response being measured. A lower IC50 goes with greater potency.

Like-named read-outs stand apart in the source and are kept apart here. A value given as a limit tells only on which side of the number the result lay.

JH2 domain of human Tyk2, sequence (P29597 575-876): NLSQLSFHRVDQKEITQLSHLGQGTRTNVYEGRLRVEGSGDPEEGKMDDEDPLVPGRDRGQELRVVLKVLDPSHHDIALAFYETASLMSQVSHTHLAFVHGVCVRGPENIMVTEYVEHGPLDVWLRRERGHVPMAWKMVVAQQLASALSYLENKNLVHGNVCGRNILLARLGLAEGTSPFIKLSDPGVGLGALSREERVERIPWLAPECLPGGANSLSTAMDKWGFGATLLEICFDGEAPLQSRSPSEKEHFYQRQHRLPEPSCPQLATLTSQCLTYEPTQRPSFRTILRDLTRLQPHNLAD
Tyk2, sequence (P29597 whole entry, the tested form may be a part): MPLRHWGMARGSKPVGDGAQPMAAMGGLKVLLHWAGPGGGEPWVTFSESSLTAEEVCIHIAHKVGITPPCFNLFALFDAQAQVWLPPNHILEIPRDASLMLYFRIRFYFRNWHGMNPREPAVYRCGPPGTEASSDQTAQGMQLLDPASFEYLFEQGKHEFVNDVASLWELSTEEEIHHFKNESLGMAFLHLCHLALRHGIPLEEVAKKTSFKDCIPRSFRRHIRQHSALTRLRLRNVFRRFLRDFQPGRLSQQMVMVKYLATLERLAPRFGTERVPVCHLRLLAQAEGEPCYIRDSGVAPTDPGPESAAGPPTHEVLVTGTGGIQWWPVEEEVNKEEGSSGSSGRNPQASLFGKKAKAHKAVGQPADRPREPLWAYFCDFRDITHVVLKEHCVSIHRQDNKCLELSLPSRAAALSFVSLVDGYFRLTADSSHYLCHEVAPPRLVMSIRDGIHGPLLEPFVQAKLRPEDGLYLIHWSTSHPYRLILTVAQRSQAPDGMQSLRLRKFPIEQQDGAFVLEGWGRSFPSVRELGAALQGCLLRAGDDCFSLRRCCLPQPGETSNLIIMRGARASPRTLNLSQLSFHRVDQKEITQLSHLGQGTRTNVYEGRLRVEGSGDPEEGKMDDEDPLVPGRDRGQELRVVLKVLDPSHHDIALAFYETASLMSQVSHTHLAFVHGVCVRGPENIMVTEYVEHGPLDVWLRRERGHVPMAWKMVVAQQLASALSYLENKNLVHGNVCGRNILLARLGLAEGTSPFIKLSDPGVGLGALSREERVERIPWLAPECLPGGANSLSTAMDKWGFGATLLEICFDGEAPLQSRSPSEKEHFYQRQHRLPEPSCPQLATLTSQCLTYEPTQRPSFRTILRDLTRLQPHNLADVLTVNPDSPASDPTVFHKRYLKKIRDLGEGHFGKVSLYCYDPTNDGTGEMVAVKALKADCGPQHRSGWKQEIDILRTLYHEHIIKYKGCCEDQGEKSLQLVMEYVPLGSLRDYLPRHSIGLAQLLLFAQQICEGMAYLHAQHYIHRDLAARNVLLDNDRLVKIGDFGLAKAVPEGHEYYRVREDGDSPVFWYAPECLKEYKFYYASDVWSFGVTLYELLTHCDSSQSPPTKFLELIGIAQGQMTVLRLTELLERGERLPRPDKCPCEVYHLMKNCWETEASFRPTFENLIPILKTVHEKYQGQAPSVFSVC

Consider `COc1cnc(NC(C)=O)cc1Nc1cc(-c2cnn(CCN3CCOCC3)c2)nc(C(C)(F)F)n1` [Example 379, N-(4-((2-(1,1-difluoroethyl)-6-(1-(2-morpholinoethyl)-1H-pyrazol-4-yl)pyrimidin-4-yl)amino)-5-methoxypyridin-2-yl)acetamide], for which the values for the half-maximal inhibitory concentration (IC50) on JH2 domain of human Tyk2 (setting [1]) and on Tyk2 (MSD) were at most 10 nM and 10 to 100 nM, respectively.

Turning to `CCOc1cnc(NC(=O)CCOC)cc1Nc1cc(C)nc(C(C)(F)F)n1` [Example 27, N-(4-((2-(1,1-difluoroethyl)-6-methylpyrimidin-4-yl)amino)-5-ethoxypyridin-2-yl)-3-methoxypropanamide], the IC50 on JH2 domain of human Tyk2 (setting [2]) was at most 10 nM; against Tyk2 (MSD) it was 100 to 1000 nM.

Consider `CC(=O)Nc1cc(Nc2cc(C)nc(C(C)(F)F)n2)c(-c2csc(N(C)C)n2)cn1` [Example 271, N-(4-((2-(1,1-difluoroethyl)-6-methylpyrimidin-4-yl)amino)-5-(2-(dimethylamino)thiazol-4-yl)pyridin-2-yl)acetamide], for which the half-inhibitory concentration (IC50) at JH2 domain of human Tyk2 (setting [2]) and against Tyk2 (MSD) was at most 10 nM each time.

Consider `CC(=O)Nc1cc(Nc2cc(C)nc(C(C)(F)F)n2)c(-c2cccc(C(C)(C)C#N)n2)cn1` [Example 654, N-(6-(2-cyanopropan-2-yl)-4′-((2-(1,1-difluoroethyl)-6-methylpyrimidin-4-yl)amino)-[2,3′-bipyridin]-6′-yl)acetamide], for which the IC50 on JH2 domain of human Tyk2 (setting [1]) and on Tyk2 (MSD) was at most 10 nM each time.

Regarding `CC(=O)Nc1cc(Nc2cc(C)nc(C(C)(F)F)n2)c(OCCCF)cn1` [Example 295, N-(4-((2-(1,1-difluoroethyl)-6-methylpyrimidin-4-yl)amino)-5-(3-fluoropropoxy)pyridin-2-yl)acetamide], the figures for the IC50 at JH2 domain of human Tyk2 (setting [2]) and against Tyk2 (MSD) were at most 10 nM and 10 to 100 nM, respectively.

Regarding `CC(=O)Nc1cc(Nc2cc(C)nc(C34COC(C3)C4)n2)c(-c2ccc(C(F)F)cn2)cn1` [Example 572, N-(4′-((2-(2-oxabicyclo[2.1.1]hexan-4-yl)-6-methylpyrimidin-4-yl)amino)-5-(difluoromethyl)-[2,3′-bipyridin]-6′-yl)acetamide], the IC50 on JH2 domain of human Tyk2 (setting [1]) and on Tyk2 (MSD) was at most 10 nM each time.

Take `COc1nc(-c2cnc(NC(C)=O)cc2Nc2cc(C)nc(C(C)(F)F)n2)ncc1C` [Example 663, N-(4-((2-(1,1-difluoroethyl)-6-methylpyrimidin-4-yl)amino)-5-(4-methoxy-5-methylpyrimidin-2-yl)pyridin-2-yl)acetamide]: the values for the IC50 at JH2 domain of human Tyk2 (setting [1]) and on Tyk2 (MSD) were 10 to 100 nM and at least 1000 nM, respectively.

For the compound `CO[C@@H](C)COc1cnc(NC(C)=O)cc1Nc1cc(OC2CC2)nc(C(C)(F)F)n1` [Example 299, (S)-N-(4-((6-cyclopropoxy-2-(1,1-difluoroethyl)pyrimidin-4-yl)amino)-5-(2-methoxypropoxy)pyridin-2-yl)acetamide], the IC50 on JH2 domain of human Tyk2 (setting [2]) and at Tyk2 (MSD) was at most 10 nM in each case.

On to `CC(=O)Nc1cc(Nc2cc(C)nc(C(C)(F)F)n2)c(-c2ccsn2)cn1` [Example 761, N-(4-((2-(1,1-difluoroethyl)-6-methylpyrimidin-4-yl)amino)-5-(isothiazol-3-yl)pyridin-2-yl)acetamide], for which the IC50 on JH2 domain of human Tyk2 (setting [3]) is at most 10 nM; against Tyk2, at least 1000 nM.

Turning to `CCOc1cnc(NC(C)=O)cc1Nc1cc(OC2CC(C)(O)C2)nc(C(C)(F)F)n1` (stereo not shown) [Example 53, N-(4-((2-(1,1-difluoroethyl)-6-(3-hydroxy-3-methylcyclobutoxy)pyrimidin-4-yl)amino)-5-ethoxypyridin-2-yl)acetamide], the IC50 was at most 10 nM on JH2 domain of human Tyk2 (setting [2]) and 10 to 100 nM on Tyk2 (MSD).

For the compound `COCCc1cc(-c2cnc(NC(C)=O)cc2Nc2cc(C)nc(C(C)(F)F)n2)ncn1` [Example 745, N-(4-((2-(1,1-difluoroethyl)-6-methylpyrimidin-4-yl)amino)-5-(6-(2-methoxyethyl)pyrimidin-4-yl)pyridin-2-yl)acetamide], the concentration for half-maximal inhibition (IC50) on JH2 domain of human Tyk2 (setting [1]) is at most 10 nM; on Tyk2 (MSD) it was 10 to 100 nM.

On to `COCc1cnc(-c2cnc(NC(C)=O)cc2Nc2cc(C)nc(C(C)(F)F)n2)nc1` [Example 672, N-(4-((2-(1,1-difluoroethyl)-6-methylpyrimidin-4-yl)amino)-5-(5-(methoxymethyl)pyrimidin-2-yl)pyridin-2-yl)acetamide], for which the IC50 at JH2 domain of human Tyk2 (setting [1]) and against Tyk2 (MSD) was at most 10 nM each time.

For `CCc1cc(Nc2cc(NC(C)=O)ncc2-c2ncc(OC(F)F)cn2)nc(C(C)(F)F)n1` [Example 848, N-(4-((2-(1,1-difluoroethyl)-6-ethylpyrimidin-4-yl)amino)-5-(5-(difluoromethoxy)pyrimidin-2-yl)pyridin-2-yl)acetamide], the IC50 on JH2 domain of human Tyk2 (setting [3]) and against Tyk2 was at most 10 nM throughout.

On to `COc1cc(-c2cnc(NC(C)=O)cc2Nc2ccnc(C(C)(F)F)n2)ncn1` [Example 193, N-(4-((2-(1,1-difluoroethyl)pyrimidin-4-yl)amino)-5-(6-methoxypyrimidin-4-yl)pyridin-2-yl)acetamide], for which the concentration for half-maximal inhibition (IC50) at JH2 domain of human Tyk2 (setting [2]) is at most 10 nM; at Tyk2 (MSD), 10 to 100 nM.

As for `COc1cc(-c2cnc(NC(C)=O)cc2Nc2cc(C)nc(C(C)(F)F)n2)ncn1` [Example 194, N-(4-((2-(1,1-difluoroethyl)-6-methylpyrimidin-4-yl)amino)-5-(6-methoxypyrimidin-4-yl)pyridin-2-yl)acetamide], the IC50 at JH2 domain of human Tyk2 (setting [2]) and against Tyk2 (MSD) was at most 10 nM each time.

Turning to `CC(=O)Nc1cc(Nc2ccnc(C(C)(F)F)n2)c(-n2cc(C)cn2)cn1` [Example 728, N-(4-((2-(1,1-difluoroethyl)pyrimidin-4-yl)amino)-5-(4-methyl-1H-pyrazol-1-yl)pyridin-2-yl)acetamide], the IC50 at JH2 domain of human Tyk2 (setting [1]) was at most 10 nM; at Tyk2 (MSD), 10 to 100 nM.

For `CC(=O)Nc1cc(Nc2cc(C)nc(C(C)(F)F)n2)c(-c2cc(N(C)C)ncn2)cn1` [Example 247, N-(4-((2-(1,1-difluoroethyl)-6-methylpyrimidin-4-yl)amino)-5-(6-(dimethylamino)pyrimidin-4-yl)pyridin-2-yl)acetamide], the IC50 on JH2 domain of human Tyk2 (setting [2]) is at most 10 nM; against Tyk2 (MSD), at least 1000 nM.

As to `CCOc1cnc(NC(C)=O)cc1Nc1cc(NC)nc(C(C)(F)F)n1` [Example 485, N-(4-((2-(1,1-difluoroethyl)-6-(methylamino)pyrimidin-4-yl)amino)-5-ethoxypyridin-2-yl)acetamide], the IC50 is at most 10 nM on JH2 domain of human Tyk2 (setting [1]) and 10 to 100 nM against Tyk2 (MSD).

Turning to `CC(=O)Nc1cc(Nc2cc(C)nc(C(C)(F)F)n2)c(-c2ncc(F)c(C)n2)cn1` [Example 673, N-(4-((2-(1,1-difluoroethyl)-6-methylpyrimidin-4-yl)amino)-5-(5-fluorO4-methylpyrimidin-2-yl)pyridin-2-yl)acetamide], the IC50 on JH2 domain of human Tyk2 (setting [1]) and against Tyk2 (MSD) was 10 to 100 nM throughout.

On to `CCOc1cnc(NC(C)=O)cc1Nc1cc(C)nc(C2CC2(C)C)n1` (racemic) [Example 518, rac-(R)-N-(4-((2-(2,2-dimethylcyclopropyl)-6-methylpyrimidin-4-yl)amino)-5-ethoxypyridin-2-yl)acetamide], for which the IC50 at JH2 domain of human Tyk2 (setting [1]) was at most 10 nM; at Tyk2 (MSD), 100 to 1000 nM.

As to `COc1cnc(NC(C)=O)cc1Nc1cc(-c2cnn(C(F)F)c2)nc(C(C)(F)F)n1` [Example 375, N-(4-((2-(1,1-difluoroethyl)-6-(1-(difluoromethyl)-1H-pyrazol-4-yl)pyrimidin-4-yl)amino)-5-methoxypyridin-2-yl)acetamide], the values for the IC50 at JH2 domain of human Tyk2 (setting [1]) and on Tyk2 (MSD) were 10 to 100 nM and 100 to 1000 nM, respectively.

With `CC(=O)Nc1cc(Nc2cc(C(C)C)nc(C(C)(F)F)n2)c(O[C@H]2C[C@H](F)C2)cn1` [Example 410, N-(4-((2-(1,1-difluoroethyl)-6-isopropylpyrimidin-4-yl)amino)-5-((1r,3r)-3-fluorocyclobutoxy)pyridin-2-yl)acetamide], the IC50 at JH2 domain of human Tyk2 (setting [1]) and at Tyk2 (MSD) was at most 10 nM each time.

Take `CCc1cc(Nc2cc(NC(C)=O)ncc2-c2ccc(=O)[nH]n2)nc(C(C)(F)F)n1` [Example 221, N-(4-((2-(1,1-difluoroethyl)-6-ethylpyrimidin-4-yl)amino)-5-(6-oxo-1,6-dihydropyridazin-3-yl)pyridin-2-yl)acetamide]: the IC50 on JH2 domain of human Tyk2 (setting [2]) is 10 to 100 nM; at Tyk2 (MSD), at least 1000 nM.

Regarding `CCOc1cnc(NC(C)=O)cc1Nc1cc(O[C@H]2C[C@H](OC)C2)nc(C)n1` [Example 519, N-(5-ethoxy-4-((6-((1r,3r)-3-methoxycyclobutoxy)-2-methylpyrimidin-4-yl)amino)pyridin-2-yl)acetamide], the half-inhibitory concentration (IC50) at JH2 domain of human Tyk2 (setting [1]) and against Tyk2 (MSD) was 100 to 1000 nM in each case.

Regarding `COCc1cnn(-c2cnc(NC(C)=O)cc2Nc2cc(C)nc(C(C)(F)F)n2)c1` [Example 765, N-(4-((2-(1,1-difluoroethyl)-6-methylpyrimidin-4-yl)amino)-5-(4-(methoxymethyl)-1H-pyrazol-1-yl)pyridin-2-yl)acetamide], the values for the 50% inhibitory concentration (IC50) at JH2 domain of human Tyk2 (setting [3]) and on Tyk2 were at most 10 nM and 10 to 100 nM, respectively.

In the case of `CC(=O)Nc1cc(Nc2cc(C)nc(C(C)(F)F)n2)c(OCC2CC23CC3)cn1` (stereo not shown) [Example 422, N-(4-((2-(1,1-difluoroethyl)-6-methylpyrimidin-4-yl)amino)-5-(spiro[2.2]pentan-1-ylmethoxy)pyridin-2-yl)acetamide], the 50% inhibitory concentration (IC50) at JH2 domain of human Tyk2 (setting [1]) was at most 10 nM; at Tyk2 (MSD) it was 10 to 100 nM.

As to `CCc1cc(Nc2cc(NC(C)=O)ncc2OCCN2CCN(C)CC2)nc(C(C)(F)F)n1` [Example 71, N-(4-((2-(1,1-difluoroethyl)-6-ethylpyrimidin-4-yl)amino)-5-(2-(4-methylpiperazin-1-yl)ethoxy)pyridin-2-yl)acetamide], the IC50 on JH2 domain of human Tyk2 (setting [2]) and on Tyk2 (MSD) was at most 10 nM in each case.

Regarding `CC(=O)Nc1cc(Nc2cccc(OC(F)F)n2)c(-c2ccncn2)cn1` [Example 171, N-(4-((6-(difluoromethoxy)pyridin-2-yl)amino)-5-(pyrimidin-4-yl)pyridin-2-yl)acetamide], the IC50 on JH2 domain of human Tyk2 (setting [2]) was at most 10 nM; on Tyk2 (MSD), 100 to 1000 nM.

For `COC1CC(COc2cnc(NC(C)=O)cc2Nc2cc(C)nc(C(C)(F)F)n2)C1` (stereo not shown) [Example 40, N-(4-((2-(1,1-difluoroethyl)-6-methylpyrimidin-4-yl)amino)-5-((3-methoxycyclobutyl)methoxy)pyridin-2-yl)acetamide], the results for the IC50 on JH2 domain of human Tyk2 (setting [2]) and against Tyk2 (MSD) were at most 10 nM and 10 to 100 nM, respectively.

Source of the values: patent US20260028365A1 (BIOGEN MA INC., priority 2022, published 2026).
